Measured values from patent US20050197364A1, “Amide compounds as ion channel ligands and uses thereof” (priority 2003, published 2005).

How the values were obtained:
VR1 receptor [1] = test: High throughput calcium imaging assay (Fura2, Flex Station) of VR1 antagonists, pH 5.1 stimulus; format: cell-based; conditions: 1 uM compound; inhibition of calcium ion influx induced by capsaicin stimulation
Experimental: Therefore the functional activity of compounds at the VR1 receptor may be determined by measuring changes in intracellular calcium levels in 293 cells expressing capsaicin-insensitive VR1 receptor variants. A dual wavelength ratiometric dye, Fura2, was used as an indicator of relative levels of calcium ions in a 96 well format using a bench top scanning fluorometer with integrated fluidics and temperature control (Flex Station, Molecular Devices).
293 cells were grown on PDL coated 96-well black-walled plates, in the presence of a DMEM medium containing 5% Penstrep, 5% Glutamax, 200 ug/mL Hygromycin, 5 μg/mL Blasticide and 10% heat inactivated FBS. Prior to assay, the cells were loaded with 5 μg/mL Fura2 in normal saline solution at 37° C. for 40 minutes. Cells were then washed with normal saline to remove the dye.
The assay consists of two stages; a pre-treatment phase followed by a treatment phase.
50 μl of a compound solution was added to the cells (Pre-treatment). Immediately following, 50 μl of the test compound in a saline solution at pH 5.1 was added. Fura2 was excited at 340 and 380 nM to indicate relative calcium concentration. Changes in wavelength measurements were made throughout the course of the experiment in 4 second intervals over a period of 3 minutes. Responses were measured as peak fluorescence ratio after test compound addition minus baseline fluorescence ratio prior to pre-treatment and were calculated using SoftMaxPro softwareData were expressed as percentage inhibition calculated using Excel as follows: [formula]

[2] = Partition coefficient Log(D), 1-octanol / pH 7.4 buffer; format: physicochemical; conditions: pH 7.4, 1-octanol/buffer
Experimental: The partition coefficient, Log(D), between water-saturated 1octanol and pH 7.4 buffer was determined for Compound 18. The pH 7.4 buffer was prepared by adjusting the pH of a 0.07 M solution of NaH2PO4 to pH 7.4 with 10 N NaOH. 15 μL of a 10 mM stock solution of test article were pipetted in duplicate, into test tubes containing 750 μL each of 1-octanol and pH 7.4 buffer. Then 3 μL of 50 mM testosterone was also added to each tube. Then the tubes were rotated for about one hour using a benchtop rotator. Following the rotation, the tubes sat on the bench top for about 1 hour to allow the layers to separate.
Thereafter, 400 μL of the octanol (top) layer was removed and placed into a test tube. Next 400 μL of the aqueous (bottom) layer was removed and placed into a test tube. […]
A standard curve of test article and testosterone was prepared using 50% methanol at the following concentrations: 2, 0.6, 0.2, 0.06, 0.02, 0.006, and 0.002 μM. The samples were analyzed by LC/MS monitoring both test article and testosterone. Log (D) was calculated for each duplicate sample by taking the calculated concentration of the least diluted sample for each phase that fell within the standard curve using the following equation: Log(D)=Log10(Calc. Conc. in Organic Phase/Calc. Conc. in Aqueous Phase).

thermal hyperalgesia = test: Thermal hyperalgesia (carrageenan, latency of paw withdrawal); format: in vivo, rat; conditions: rats, 30 mg/kg, two hours after dosing, FIG. 6
Experimental: Sprague-Dawley male rats obtained from Charles River, San Diego, Calif. were purchased at 150-175 g, and held for at least one week before testing. Pain was induced by injecting 100 μl of 2% carrageenan in 0.9% saline sub-Q into the right ventral hindpaw while the animals were under isofluorane anesthesia. Animals were then dosed one hour after with different concentrations of Compound 18 (3, 10, and 30 mg/kg). Two hours later, after acclimatizing in testing chambers for 20-30 minutes, animals were tested on both hindpaws for latency of paw withdrawal using a thermal testing apparatus. 2-3 trials were conducted with 10 minutes between trials. […] The figure depicts the time in seconds until animals withdraw from thermal stimulation at baseline and two hours after administration of delivery vehicle, control compound, and three concentrations of Compound 18.

VR1 receptor [3] = molecular target: T1, VR1 receptor (Rattus norvegicus, UniProt O35433); test: Whole-cell patch clamp electrophysiology, capsaicin induced current in DRG neurons; format: cell-based
T1 construct: Dorsal root ganglion (DRG) neurons were recovered from either neonatal or adult rats; endogenous in cells; host or cells: primary rat dorsal root ganglion neurons
T1 sequence (O35433 whole entry): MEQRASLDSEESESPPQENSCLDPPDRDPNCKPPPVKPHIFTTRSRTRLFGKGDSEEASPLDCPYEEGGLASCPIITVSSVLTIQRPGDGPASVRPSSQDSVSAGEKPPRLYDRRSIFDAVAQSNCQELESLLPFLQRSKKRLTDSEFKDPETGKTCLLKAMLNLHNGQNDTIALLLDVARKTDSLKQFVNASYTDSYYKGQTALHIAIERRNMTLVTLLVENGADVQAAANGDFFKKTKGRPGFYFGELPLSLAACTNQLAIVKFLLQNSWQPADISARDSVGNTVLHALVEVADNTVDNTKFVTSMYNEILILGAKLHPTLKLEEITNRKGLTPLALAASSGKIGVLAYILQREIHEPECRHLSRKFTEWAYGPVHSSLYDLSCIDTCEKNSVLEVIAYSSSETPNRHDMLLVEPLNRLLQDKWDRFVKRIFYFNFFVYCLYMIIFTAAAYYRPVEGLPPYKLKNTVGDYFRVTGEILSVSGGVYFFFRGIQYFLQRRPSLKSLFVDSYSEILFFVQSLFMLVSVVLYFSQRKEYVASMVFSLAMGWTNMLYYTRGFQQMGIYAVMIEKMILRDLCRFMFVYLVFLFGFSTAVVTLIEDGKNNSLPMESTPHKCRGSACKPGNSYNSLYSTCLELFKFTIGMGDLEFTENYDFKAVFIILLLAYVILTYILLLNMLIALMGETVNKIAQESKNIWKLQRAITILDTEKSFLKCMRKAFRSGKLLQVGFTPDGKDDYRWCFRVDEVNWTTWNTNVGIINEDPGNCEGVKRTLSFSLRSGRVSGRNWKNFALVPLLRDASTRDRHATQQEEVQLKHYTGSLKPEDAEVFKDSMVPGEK
Experimental: Dorsal root ganglion (DRG) neurons were recovered from either neonatal or adult rats and plated onto poly-D-lysine coated glass coverslips. The plated neurons were transferred into a chamber to allow drug solutions to be added to the cells using a computer-controlled solenoid-valve based perfusion system. The cells were imaged using standard DIC optics. Cells were patched using finely-pulled glass electrodes. Voltage-clamp electrophysiology experiments were carried out using an Axon Instruments Multiclamp amplified controlled by pCLAMP8 software.
The cells were placed into a whole-cell voltage clamp and help at a voltage of −80 mV while monitoring the membrane current in gap-free recording mode. 500 nM capsaicin was added for 30 seconds as a control. Test compounds at various concentrations at ranging from (10-1000 nM) were added to the cells for 1 minute prior to a 30 second capsaicin application. Differences between control experiments and drug positive capsaicin experiments were used to determine the efficacy of each test compound. All compounds that inhibited capsaicin induced current greater than 50% were considered positives.

CYP1A2 = molecular target: T2, CYP1A2 (Homo sapiens, UniProt P05177); test: Cytochrome p450 inhibition assessment, CYP1A2; format: in vitro ADME; conditions: estimated
T2 sequence (P05177 1-516): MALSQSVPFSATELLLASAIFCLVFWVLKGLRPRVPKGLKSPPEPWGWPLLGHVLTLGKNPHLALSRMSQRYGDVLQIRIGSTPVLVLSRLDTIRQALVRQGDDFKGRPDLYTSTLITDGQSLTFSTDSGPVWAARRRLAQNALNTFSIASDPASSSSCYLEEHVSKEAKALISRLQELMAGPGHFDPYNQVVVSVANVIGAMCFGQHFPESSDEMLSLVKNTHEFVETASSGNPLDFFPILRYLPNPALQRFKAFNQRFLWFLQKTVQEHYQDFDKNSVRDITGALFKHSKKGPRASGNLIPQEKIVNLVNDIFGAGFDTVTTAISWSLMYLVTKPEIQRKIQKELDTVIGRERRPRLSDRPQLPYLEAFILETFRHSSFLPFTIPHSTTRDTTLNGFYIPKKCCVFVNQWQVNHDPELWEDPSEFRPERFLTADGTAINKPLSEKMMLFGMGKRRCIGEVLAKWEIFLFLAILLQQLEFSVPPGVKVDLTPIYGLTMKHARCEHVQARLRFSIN
Experimental: (§1) The ability of test compounds to inhibit five major human cytochrome p450 isozymes was evaluated. Cytochrome p450 inhibition assays were performed on 96-well microtiter assay plates according to the protocols described in Gentest P450 inhibition instruction manuals. The assays were performed in duplicate at 8 concentrations with the upper concentration of 100 μM followed by a 1:3 serial dilution. Reactions were initiated by the addition of 100 μL of enzyme/substrate mix to 100 μL of cofactor/serial dilution mix, and terminated by addition of 75 μL of a 4:1 acentonitrile: 0.5 M Tris base solution or by 2N NaOH for CYP3A4/DBF. Fluorescence was measured using a fluorescence plate reader (FLUOstar model 403, BMG Lab Technologies, Durham, N.C.). For reactions with inhibition greater than 50%, IC50 values were determined by fitting the data to the Hill equation using software GraphPad Prism (Version 4.02, GraphPad Software, San Diego, Calif.).

2C9 = 2C9 (Homo sapiens, UniProt P11712); test: Cytochrome p450 inhibition assessment, 2C9; format: in vitro ADME; conditions: concentration range tested, upper 100 μM
Sequence of 2C9 (P11712 whole entry): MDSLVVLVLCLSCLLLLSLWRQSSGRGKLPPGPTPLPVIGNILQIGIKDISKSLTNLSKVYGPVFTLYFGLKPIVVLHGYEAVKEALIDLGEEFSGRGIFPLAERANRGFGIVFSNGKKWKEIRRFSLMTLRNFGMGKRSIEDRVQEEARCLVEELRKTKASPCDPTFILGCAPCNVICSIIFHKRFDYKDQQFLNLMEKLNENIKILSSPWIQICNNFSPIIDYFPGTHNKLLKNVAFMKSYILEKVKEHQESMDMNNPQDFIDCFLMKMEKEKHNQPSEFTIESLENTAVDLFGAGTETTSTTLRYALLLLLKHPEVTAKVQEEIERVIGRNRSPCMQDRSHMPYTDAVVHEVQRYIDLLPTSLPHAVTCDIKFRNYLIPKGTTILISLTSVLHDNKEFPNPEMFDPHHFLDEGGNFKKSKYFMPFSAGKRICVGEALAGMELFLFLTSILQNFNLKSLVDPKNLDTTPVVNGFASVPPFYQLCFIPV
Experimental: as §1

[4] = test system: pawlick response induced by capsaicin; test: Paw lick assay (capsaicin challenge); format: in vivo; conditions: 30 mg/kg, at least 30 minutes prior to testing; FIG. 5
Experimental: This assay was performed to test the ability of Compound 18 to inhibit the response to capsaicin challenge.
Animals were acclimatized at least 2 days prior to testing by placing them in a behavioral chamber for one hour. On the day of testing, animals were trained for 30-60 minutes prior to dosing. Animals were dosed with 30 mg/kg of Compound 18 at least 30 minutes prior to testing and then placed in behavioral chambers for acclimatization. Animals were then placed into a falcon tube restrainer and injected with a 0.16 mg/ml capsaicin solution (or vehicle) into the plantar surface of their paw. Animals were then returned to the behavior chamber and monitored for paw licking behavior (including paw and leg licking behavior) over the next 5 minute interval.

Log (D) [2]: less than 4.7 | dose response of inhibiting a capsaicin induced calcium ion influx (FIG. 3) (VR1 receptor [3]; 50 nM, 100 nM and 250 nM): increasing effectiveness | inhibition at 0.1 µM (VR1 receptor [3]; DRG neuron, 100 nM compound, treatment time 20 seconds, 500 nM capsaicin, rat DRG neurons, -80 mV): < 75% | IC50 (CYP1A2): 97.5 µM | inhibition of 2C9 activity (2C9): did not significantly inhibit
SMILES: O=C(Nc1ccc(C(F)(F)F)cc1)c1ccc(-c2ncccc2Cl)cc1 [Compound 18, 4-(3-Chloropyridin-2-yl)-N-(4-trifluoromethyl-phenyl)benzamide]
% Inhibition @ 1 uM (VR1 receptor [1]): + + + + (compound exhibited 75% or greater inhibition of calcium ion influx induced by capsaicin stimulation) | latency of paw withdrawal (reversal of thermal hyperalgesia) (thermal hyperalgesia): significantly increased | pawlick response induced by treatment with capsaicin [4]: significantly inhibited
